According to paper PMC7279038, “Antioxidant and Neuroprotective Effects Induced by Cannabidiol and Cannabigerol in Rat CTX-TNA2 Astrocytes and Isolated Cortexes” (International Journal of Molecular Sciences, 2020):

Assays:
[1] = test system: isolated rat prefrontal cortex, 5-HT; experiment: H2O2-induced reduction in 5-HT level in isolated cortexes; details: hydrogen peroxide 300 µM; CBD 1000 nM, CBG 1 nM
Method: Sprague–Dawley rats (200–250 g) were sacrificed by CO2 inhalation and isolated prefrontal cortex specimens were immediately explanted and exposed to 300 µM H2O2 and different concentrations of CBD (1–1000 nM) and CBG (1–1000 nM) for one hour, at 37 °C. The nitrite concentration in the resuspension buffer was determined by colorimetric Griess assay. Specifically, cortex specimens were homogenized for 2 min with Potter–Elvehjem homogenizer in 2 mL DMEM buffer. The homogenate was centrifuged at 4500 g for 10 min and nitrite production was determined in the supernatant fraction by mixing 50 µL of the assay buffer with 50 µL of Griess reagent (1.5% sulfanilamide in 1M HCl plus 0.15% N-(1-naphthyl) ethylenediamine dihydrochloride in distilled water, v/v). After 10 min incubation at room temperature, the absorbance at 540 nm was determined and nitrite concentrations were calculated from a sodium nitrite standard curve. […]
Tissue 3-HK, 5-HT and 5HIIA levels were analyzed through an HPLC apparatus consisting of a Jasco (Tokyo, Japan) PU-2080 chromatographic pump and an ESA (Chelmsford, MA, USA) Coulochem III coulometric detector, equipped with a microdialysis cell (ESA-5014b), a porous graphite working electrode and a solid state palladium reference electrode. The analytical conditions for identification and quantification were selected according to previous studies. […]

[2] = test system: calcium/calmodulin-dependent protein kinase type II subunit alpha (CAMK2A); experiment: Untargeted proteomic analysis of cortexes, CAMK2A; set-up: species or system rat; details: CBD 1000 nM, CBG 1 nM
Method: (§1) Sprague–Dawley rats (200–250 g) were sacrificed by CO2 inhalation (Italian Health Ministry authorization N. F4738.N.XTQ, delivered on 11th November 2018) and isolated prefrontal cortex specimens were immediately explanted and incubated in thermostatic shaking bath at 37 °C for 1 h (incubation period), in Krebs–Ringer buffer at the following K^+ concentrations:
(§2) Cortexes were stimulated with CBD (1000 nM) and CBD (1 nM). Afterwards, specimens were homogenized in perchloric acid solution (0.05 M) for the extraction and quantification of nitrites, via the aforementioned colorimetric Griess assay, and serotonin (5-HT), 5-hydroxyindoleacetic (5HIIA),3-hydroxykinurenine (3-HK) and kinurenic acid (KA) (ng/mg wet tissue) via high performance liquid chromatography analysis. Additionally, an untargeted proteomic analysis was carried out on the cortex homogenate. The analytical protocols for 5-HT, 5HIIA, 3-HK, KA and protein level determinations are described below. […]
(§3) After protein quantification, a volume corresponding to 50 μg of proteins was loaded onto a Nanosep 10-kDa-cutoff filter (Pall Corporation, Michigan, USA) and digested according to the protocol we routinely use in our laboratory, adapted from Distler et al. Briefly, the sample was washed twice with 200 μL urea buffer (8M urea, 100 mM Tris pH 8.5 in milliQ water) to remove the detergents present in the lysis buffer. […]

[3] = test system: isolated rat cortexes, 5HIIA/5-HT ratio; experiment: K+ 60 mM neurotoxicity paradigm, 5-HT turnover; details: CBD 1000 nM, CBG 1 nM
Method: as §1
as §2, with “analysis.” for “analysis. Additionally, an untargeted proteomic analysis was carried out on the cortex homogenate. The analytical protocols for 5-HT, 5HIIA, 3-HK, KA and protein level determinations are described below.”
Tissue 3-HK, 5-HT and 5HIIA levels were analyzed through an HPLC apparatus consisting of a Jasco (Tokyo, Japan) PU-2080 chromatographic pump and an ESA (Chelmsford, MA, USA) Coulochem III coulometric detector, equipped with a microdialysis cell (ESA-5014b), a porous graphite working electrode and a solid state palladium reference electrode. The analytical conditions for identification and quantification were selected according to previous studies. […] The chromatograms were monitored at the analytical detector 2. […] Sample concentrations were calculated by linear regression curve (y = bx + m) obtained with standard. […]

histone H2B = experiment: Untargeted proteomic analysis of cortexes, H2B; set-up: species or system rat; details: CBD 1000 nM, CBG 1 nM
Method: as §1, §2, §3

Structure (SMILES)	effect on H2O2-induced 5-HT depletion [1]	effect on K+ 60 mM-induced reduction in CAMK2A level [2]	effect on K+ 60 mM-induced increase in 5-HT turnover (5HIIA/5-HT ratio) [3]	effect on K+ 60 mM-induced reduction in H2B level (histone H2B)
C=C(C)[C@@H]1CCC(C)=C[C@H]1c1c(O)cc(CCCCC)cc1O [CBD, Cannabidiol]	blunting effect on 5-HT depletion	blocking the downregulation	able to prevent the 5-HT depletion	effective in counteracting the downregulation
CCCCCc1cc(O)c(C/C=C(\C)CCC=C(C)C)c(O)c1 [CBG, cannabigerol]	same effect at the concentration of 1 nM	completely ineffective	able to prevent the 5-HT depletion	effective in counteracting the downregulation
